Laboratory results published in ChEMBL document CHEMBL1201862, “PubChem BioAssay data set” (2004).
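Grown in 96-well plates, cells were treated for 48 hours with each compound at five concentrations. Insufficient inhibition: endpoint recorded as highest concentration tested. GI50 = concentration required for 50% inhibition of growth.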 Calls of active or inactive are those of the source. Rule as the data show it: active = GI50 up to about 1.1 µM and inactive = higher.

Legend:
Experiment in all cases: inhibition of tumour cell growth, NCI panel, 48 h
BT-549 = system: BT-549
CCRF-CEM = system: CCRF-CEM
COLO 205 = system: COLO 205
EKVX = system: EKVX
HCC 2998 = system: HCC 2998
HCT-15 = system: HCT-15
HOP-62 = system: HOP-62
HOP-92 = system: HOP-92
HT-29 = system: HT-29
IGROV-1 = system: IGROV-1
MCF7 = system: MCF7
Malme-3M = system: Malme-3M
NCI-H226 = system: NCI-H226
RPMI-8226 = system: RPMI-8226
SNB-75 = system: SNB-75
SW-620 = system: SW-620
TK-10 = system: TK-10
U-251 = system: U-251
UACC-62 = system: UACC-62

N=C1N=C(N)c2cc3c(cc21)SCCSCCCSCCS3
GI50 (BT-549): 14.1 µM (inactive) | GI50 (CCRF-CEM): 3.95 µM (inactive) | GI50 (COLO 205): 12 µM (inactive) | GI50 (EKVX): 19.9 µM (inactive) | GI50 (HCC 2998): 9.62 µM (inactive) | GI50 (HCT-15): 14.3 µM | GI50 (HOP-62): 13.6 µM (inactive) | GI50 (HOP-92): 23.1 µM (inactive) | GI50 (HT-29): 11.2 µM (inactive) | GI50 (IGROV-1): 17.2 µM (inactive) | GI50 (MCF7): 27 µM (inactive) | GI50 (Malme-3M): 20.5 µM (inactive) | GI50 (NCI-H226): 20.5 µM (inactive) | GI50 (RPMI-8226): > 10 µM (inactive) | GI50 (SNB-75): 14.8 µM (inactive) | GI50 (SW-620): 11.6 µM (inactive) | GI50 (TK-10): 15.1 µM (inactive) | GI50 (U-251): 15.1 µM (inactive) | GI50 (UACC-62): 22 µM (inactive)

COc1ccc(C2=Nn3c(nc4sc5c(c4c3=O)CCCC5)SC2)cc1
GI50 (BT-549): > 100 µM (inactive) | GI50 (CCRF-CEM): > 100 µM (inactive) | GI50 (COLO 205): > 100 µM (inactive) | GI50 (EKVX): > 100 µM (inactive) | GI50 (HCC 2998): > 100 µM (inactive) | GI50 (HCT-15): > 100 µM | GI50 (HOP-62): 49.8 µM (inactive) | GI50 (HOP-92): > 100 µM (inactive) | GI50 (HT-29): > 100 µM (inactive) | GI50 (IGROV-1): > 100 µM (inactive) | GI50 (MCF7): > 100 µM (inactive) | GI50 (Malme-3M): > 100 µM (inactive) | GI50 (NCI-H226): > 100 µM (inactive) | GI50 (RPMI-8226): > 100 µM (inactive) | GI50 (SNB-75): > 10 µM (inactive) | GI50 (SW-620): > 100 µM (inactive) | GI50 (TK-10): 57.8 µM (inactive) | GI50 (U-251): > 100 µM (inactive) | GI50 (UACC-62): > 100 µM (inactive)

COc1ccc(OC)c(C[P+](c2ccccc2)(c2ccccc2)c2ccccc2)c1
GI50 (BT-549): 2.06 µM (inactive) | GI50 (CCRF-CEM): 2.56 µM (inactive) | GI50 (COLO 205): 1.1 µM (active) | GI50 (EKVX): 10.6 µM (inactive) | GI50 (HCC 2998): 3.54 µM (inactive) | GI50 (HCT-15): 18.5 µM | GI50 (HOP-62): 3.77 µM (inactive) | GI50 (HOP-92): 0.792 µM (active) | GI50 (HT-29): 0.45 µM (active) | GI50 (IGROV-1): 0.971 µM (active) | GI50 (MCF7): 2.11 µM (inactive) | GI50 (Malme-3M): 5.56 µM (inactive) | GI50 (NCI-H226): 4.84 µM (inactive) | GI50 (RPMI-8226): 0.33 µM (active) | GI50 (SNB-75): 3.71 µM (inactive) | GI50 (SW-620): 2.61 µM (inactive) | GI50 (TK-10): 2.7 µM (inactive) | GI50 (UACC-62): 0.971 µM (active)

Cc1nc2cc(Cl)c(N)cc2[nH]1
GI50 (BT-549): > 100 µM (inactive) | GI50 (CCRF-CEM): > 100 µM (inactive) | GI50 (COLO 205): > 100 µM (inactive) | GI50 (EKVX): > 100 µM (inactive) | GI50 (HCC 2998): > 10 µM (inactive) | GI50 (HCT-15): > 100 µM | GI50 (HOP-62): > 100 µM (inactive) | GI50 (HT-29): > 100 µM (inactive) | GI50 (IGROV-1): > 100 µM (inactive) | GI50 (MCF7): > 100 µM (inactive) | GI50 (Malme-3M): > 100 µM (inactive) | GI50 (NCI-H226): > 100 µM (inactive) | GI50 (RPMI-8226): > 100 µM (inactive) | GI50 (SNB-75): > 100 µM (inactive) | GI50 (SW-620): > 100 µM (inactive) | GI50 (TK-10): > 100 µM (inactive) | GI50 (U-251): > 100 µM (inactive) | GI50 (UACC-62): > 100 µM (inactive)

CCC(=O)Nc1cccc(/N=C/c2ccc(OC(=O)/C=C\c3ccccc3)cc2)c1
GI50 (BT-549): 37 µM (inactive) | GI50 (CCRF-CEM): > 75 µM (inactive) | GI50 (COLO 205): 64.7 µM (inactive) | GI50 (EKVX): 52.1 µM (inactive) | GI50 (HCC 2998): 32.3 µM (inactive) | GI50 (HCT-15): 35.8 µM | GI50 (HOP-62): > 75 µM (inactive) | GI50 (HOP-92): 35.2 µM (inactive) | GI50 (HT-29): 36.3 µM (inactive) | GI50 (IGROV-1): 37.8 µM (inactive) | GI50 (MCF7): 25.2 µM (inactive) | GI50 (Malme-3M): 40.4 µM (inactive) | GI50 (NCI-H226): 33.6 µM (inactive) | GI50 (RPMI-8226): 43.8 µM (inactive) | GI50 (SNB-75): 12.3 µM (inactive) | GI50 (SW-620): > 75 µM (inactive) | GI50 (TK-10): > 75 µM (inactive) | GI50 (UACC-62): 30.8 µM (inactive)

Clc1ccccc1-c1nc(-c2ccncc2)no1 [PIFEXOLE]
GI50 (BT-549): 42.3 µM (inactive) | GI50 (COLO 205): 40.8 µM (inactive) | GI50 (EKVX): 16.1 µM (inactive) | GI50 (HCC 2998): 25.1 µM (inactive) | GI50 (HCT-15): 44.7 µM | GI50 (HOP-62): > 100 µM (inactive) | GI50 (HOP-92): > 100 µM (inactive) | GI50 (HT-29): 66.1 µM (inactive) | GI50 (IGROV-1): 71.3 µM (inactive) | GI50 (MCF7): 30 µM (inactive) | GI50 (Malme-3M): 75.3 µM (inactive) | GI50 (NCI-H226): 98.9 µM (inactive) | GI50 (RPMI-8226): 44.2 µM (inactive) | GI50 (SNB-75): 89.3 µM (inactive) | GI50 (SW-620): 52.7 µM (inactive) | GI50 (TK-10): 42.8 µM (inactive) | GI50 (U-251): 65.8 µM (inactive) | GI50 (UACC-62): 73.6 µM (inactive)

Clc1ccc(Nc2ncco2)cc1Cl
GI50 (BT-549): > 10 µM (inactive) | GI50 (CCRF-CEM): > 10 µM (inactive) | GI50 (COLO 205): > 10 µM (inactive) | GI50 (EKVX): > 10 µM (inactive) | GI50 (HCC 2998): > 10 µM (inactive) | GI50 (HCT-15): > 10 µM | GI50 (HOP-62): > 10 µM (inactive) | GI50 (HOP-92): > 10 µM (inactive) | GI50 (HT-29): > 10 µM (inactive) | GI50 (IGROV-1): > 10 µM (inactive) | GI50 (MCF7): > 10 µM (inactive) | GI50 (Malme-3M): > 10 µM (inactive) | GI50 (NCI-H226): > 10 µM (inactive) | GI50 (SNB-75): > 10 µM (inactive) | GI50 (SW-620): > 10 µM (inactive) | GI50 (TK-10): > 10 µM (inactive) | GI50 (U-251): > 10 µM (inactive) | GI50 (UACC-62): > 10 µM (inactive)

COc1cc(O)c2c(=O)c(OC)c(-c3ccc4c(c3)OCO4)oc2c1
GI50 (BT-549): 4.04 µM (inactive) | GI50 (CCRF-CEM): > 100 µM (inactive) | GI50 (COLO 205): > 100 µM (inactive) | GI50 (EKVX): > 60.8 µM (inactive) | GI50 (HCC 2998): > 100 µM (inactive) | GI50 (HCT-15): > 100 µM | GI50 (HOP-62): 7.76 µM (inactive) | GI50 (HT-29): > 100 µM (inactive) | GI50 (IGROV-1): > 52 µM (inactive) | GI50 (MCF7): > 100 µM (inactive) | GI50 (Malme-3M): > 100 µM (inactive) | GI50 (NCI-H226): > 57.9 µM (inactive) | GI50 (RPMI-8226): > 100 µM (inactive) | GI50 (SNB-75): 5.9 µM (inactive) | GI50 (SW-620): > 100 µM (inactive) | GI50 (TK-10): 36.7 µM (inactive) | GI50 (U-251): 9.27 µM (inactive) | GI50 (UACC-62): 78.9 µM (inactive)
